The source made the active and inactive calls. No rule for the calls is given here.
Tested on: Aspergillus niger
Test: Antimicrobial activity against Aspergillus niger MTCC 281 at 500 ug/ml after 72 hrs by cup plate method
Assay type: functional
Settings: MTCC 281, 72 h, read-out: IZ
With Cc1ccc2[nH]c(-c3ccccc3)c(C3C=C(c4ccc(Cl)cc4)OC(N)=C3C#N)c2c1 (stereo not given) the zone of inhibition at 500 µg/mL was 10 mm.

Tested on: not listed separately
Test: Antioxidant activity assessed as metal chelating activity by measuring inhibition of ferrozine-Fe2+ complex formation at 25 to 100 ug/ml
Assay type: functional
Settings: not given
For Cc1ccc2[nH]c(-c3ccccc3)c(C3C=C(c4ccc(Cl)cc4)OC(N)=C3C#N)c2c1 (stereo not given), the Activity was “Active”.

Tested on: Escherichia coli
Test: Antimicrobial activity against Escherichia coli MTCC 723 at 750 ug/ml after 24 hrs by cup plate method
Assay type: functional
Settings: MTCC 723, 24 h, read-out: IZ
In the case of Cc1ccc2[nH]c(-c3ccccc3)c(C3C=C(c4ccc(Cl)cc4)OC(N)=C3C#N)c2c1 (stereo not given), the zone of inhibition at 750 µg/mL was 10 mm.

Tested on: Aspergillus flavus
Test: Antimicrobial activity against Aspergillus flavus MTCC 1973 at 1000 ug/ml after 72 hrs by cup plate method
Assay type: functional
Settings: MTCC 1973, 72 h, read-out: IZ
Compound Cc1ccc2[nH]c(-c3ccccc3)c(C3C=C(c4ccc(Cl)cc4)OC(N)=C3C#N)c2c1 (stereo not given) has a zone of inhibition at 1000 µg/mL of 8 mm.

Tested on: Aspergillus terreus
Test: Antimicrobial activity against Aspergillus terreus MTCC 1782 at 750 ug/ml after 72 hrs by cup plate method
Assay type: functional
Settings: MTCC 1782, 72 h, read-out: IZ
With Cc1ccc2[nH]c(-c3ccccc3)c(C3C=C(c4ccc(Cl)cc4)OC(N)=C3C#N)c2c1 (stereo not given) the zone of inhibition at 750 µg/mL was 13 mm.

Tested on: Klebsiella pneumoniae
Test: Antimicrobial activity against Klebsiella pneumoniae NCTC 13368 at 750 ug/ml after 24 hrs by cup plate method
Assay type: functional
Settings: NCTC 13368, 24 h, read-out: IZ
Compound Cc1ccc2[nH]c(-c3ccccc3)c(C3C=C(c4ccc(Cl)cc4)OC(N)=C3C#N)c2c1 (stereo not given) has a zone of inhibition at 750 µg/mL of 9 mm.

Tested on: Aspergillus niger
Test: Antimicrobial activity against Aspergillus niger MTCC 281 at 1000 ug/ml after 72 hrs by cup plate method
Assay type: functional
Settings: MTCC 281, 72 h, read-out: IZ
Work on Cc1ccc2[nH]c(-c3ccccc3)c(C3C=C(c4ccc(Cl)cc4)OC(N)=C3C#N)c2c1 (stereo not given) yielded a zone of inhibition at 1000 µg/mL of 10 mm.

Tested on: Staphylococcus aureus
Test: Antimicrobial activity against Staphylococcus aureus ATCC 29513 at 750 ug/ml after 24 hrs by cup plate method
Assay type: functional
Settings: ATCC 29513, 24 h, read-out: IZ
With Cc1ccc2[nH]c(-c3ccccc3)c(C3C=C(c4ccc(Cl)cc4)OC(N)=C3C#N)c2c1 (stereo not given) the zone of inhibition at 750 µg/mL was 5 mm.

Tested on: Aspergillus niger
Test: Antimicrobial activity against Aspergillus niger MTCC 281 at 750 ug/ml after 72 hrs by cup plate method
Assay type: functional
Settings: MTCC 281, 72 h, read-out: IZ
Compound Cc1ccc2[nH]c(-c3ccccc3)c(C3C=C(c4ccc(Cl)cc4)OC(N)=C3C#N)c2c1 (stereo not given) has a zone of inhibition at 750 µg/mL of 10 mm.

Tested on: Pseudomonas aeruginosa
Test: Antimicrobial activity against Pseudomonas aeruginosa MTCC 1688 at 750 ug/ml after 24 hrs by cup plate method
Assay type: functional
Settings: MTCC 1688, 24 h, read-out: IZ
Work on Cc1ccc2[nH]c(-c3ccccc3)c(C3C=C(c4ccc(Cl)cc4)OC(N)=C3C#N)c2c1 (stereo not given) yielded a zone of inhibition at 750 µg/mL of 5 mm.

Tested on: Aspergillus oryzae
Test: Antimicrobial activity against Aspergillus oryzae MTCC 3567 at 750 ug/ml after 72 hrs by cup plate method
Assay type: functional
Settings: MTCC 3567, 72 h, read-out: IZ
Cc1ccc2[nH]c(-c3ccccc3)c(C3C=C(c4ccc(Cl)cc4)OC(N)=C3C#N)c2c1 (stereo not given) gave a zone of inhibition at 750 µg/mL of 10 mm.

Tested on: Escherichia coli
Test: Antimicrobial activity against Escherichia coli MTCC 723 at 500 ug/ml after 24 hrs by cup plate method
Assay type: functional
Settings: MTCC 723, 24 h, read-out: IZ
Cc1ccc2[nH]c(-c3ccccc3)c(C3C=C(c4ccc(Cl)cc4)OC(N)=C3C#N)c2c1 (stereo not given) showed a zone of inhibition at 500 µg/mL of 10 mm.

Tested on: Escherichia coli
Test: Antimicrobial activity against Escherichia coli MTCC 723 at 1000 ug/ml after 24 hrs by cup plate method
Assay type: functional
Settings: MTCC 723, 24 h, read-out: IZ
Cc1ccc2[nH]c(-c3ccccc3)c(C3C=C(c4ccc(Cl)cc4)OC(N)=C3C#N)c2c1 (stereo not given) gave a zone of inhibition at 1000 µg/mL of 10 mm.

Tested on: Staphylococcus aureus
Test: Antimicrobial activity against Staphylococcus aureus ATCC 29513 at 1000 ug/ml after 24 hrs by cup plate method
Assay type: functional
Settings: ATCC 29513, 24 h, read-out: IZ
For Cc1ccc2[nH]c(-c3ccccc3)c(C3C=C(c4ccc(Cl)cc4)OC(N)=C3C#N)c2c1 (stereo not given), the zone of inhibition at 1000 µg/mL was 2 mm.

Tested on: Aspergillus terreus
Test: Antimicrobial activity against Aspergillus terreus MTCC 1782 at 1000 ug/ml after 72 hrs by cup plate method
Assay type: functional
Settings: MTCC 1782, 72 h, read-out: IZ
In the case of Cc1ccc2[nH]c(-c3ccccc3)c(C3C=C(c4ccc(Cl)cc4)OC(N)=C3C#N)c2c1 (stereo not given), the zone of inhibition at 1000 µg/mL was 13 mm.

Tested on: Klebsiella pneumoniae
Test: Antimicrobial activity against Klebsiella pneumoniae NCTC 13368 at 1000 ug/ml after 24 hrs by cup plate method
Assay type: functional
Settings: NCTC 13368, 24 h, read-out: IZ
Compound Cc1ccc2[nH]c(-c3ccccc3)c(C3C=C(c4ccc(Cl)cc4)OC(N)=C3C#N)c2c1 (stereo not given) has a zone of inhibition at 1000 µg/mL of 8 mm.

Tested on: Aspergillus flavus
Test: Antimicrobial activity against Aspergillus flavus MTCC 1973 at 750 ug/ml after 72 hrs by cup plate method
Assay type: functional
Settings: MTCC 1973, 72 h, read-out: IZ
With Cc1ccc2[nH]c(-c3ccccc3)c(C3C=C(c4ccc(Cl)cc4)OC(N)=C3C#N)c2c1 (stereo not given) the zone of inhibition at 750 µg/mL was 10 mm.

Tested on: Aspergillus terreus
Test: Antimicrobial activity against Aspergillus terreus MTCC 1782 at 500 ug/ml after 72 hrs by cup plate method
Assay type: functional
Settings: MTCC 1782, 72 h, read-out: IZ
Cc1ccc2[nH]c(-c3ccccc3)c(C3C=C(c4ccc(Cl)cc4)OC(N)=C3C#N)c2c1 (stereo not given) gave a zone of inhibition at 500 µg/mL of 12 mm.

Tested on: Aspergillus oryzae
Test: Antimicrobial activity against Aspergillus oryzae MTCC 3567 at 500 ug/ml after 72 hrs by cup plate method
Assay type: functional
Settings: MTCC 3567, 72 h, read-out: IZ
Compound Cc1ccc2[nH]c(-c3ccccc3)c(C3C=C(c4ccc(Cl)cc4)OC(N)=C3C#N)c2c1 (stereo not given) has a zone of inhibition at 500 µg/mL of 10 mm.

Tested on: Aspergillus flavus
Test: Antimicrobial activity against Aspergillus flavus MTCC 1973 at 500 ug/ml after 72 hrs by cup plate method
Assay type: functional
Settings: MTCC 1973, 72 h, read-out: IZ
Compound Cc1ccc2[nH]c(-c3ccccc3)c(C3C=C(c4ccc(Cl)cc4)OC(N)=C3C#N)c2c1 (stereo not given) has a zone of inhibition at 500 µg/mL of 10 mm.

Tested on: Pseudomonas aeruginosa
Test: Antimicrobial activity against Pseudomonas aeruginosa MTCC 1688 at 1000 ug/ml after 24 hrs by cup plate method
Assay type: functional
Settings: MTCC 1688, 24 h, read-out: IZ
Cc1ccc2[nH]c(-c3ccccc3)c(C3C=C(c4ccc(Cl)cc4)OC(N)=C3C#N)c2c1 (stereo not given) showed a zone of inhibition at 1000 µg/mL of 2 mm.

Tested on: Klebsiella pneumoniae
Test: Antimicrobial activity against Klebsiella pneumoniae NCTC 13368 at 500 ug/ml after 24 hrs by cup plate method
Assay type: functional
Settings: NCTC 13368, 24 h, read-out: IZ
Cc1ccc2[nH]c(-c3ccccc3)c(C3C=C(c4ccc(Cl)cc4)OC(N)=C3C#N)c2c1 (stereo not given) gave a zone of inhibition at 500 µg/mL of 9 mm.

Tested on: Pseudomonas aeruginosa
Test: Antimicrobial activity against Pseudomonas aeruginosa MTCC 1688 at 500 ug/ml after 24 hrs by cup plate method
Assay type: functional
Settings: MTCC 1688, 24 h, read-out: IZ
Cc1ccc2[nH]c(-c3ccccc3)c(C3C=C(c4ccc(Cl)cc4)OC(N)=C3C#N)c2c1 (stereo not given) showed a zone of inhibition at 500 µg/mL of 6 mm.

Tested on: Staphylococcus aureus
Test: Antimicrobial activity against Staphylococcus aureus ATCC 29513 at 500 ug/ml after 24 hrs by cup plate method
Assay type: functional
Settings: ATCC 29513, 24 h, read-out: IZ
Work on Cc1ccc2[nH]c(-c3ccccc3)c(C3C=C(c4ccc(Cl)cc4)OC(N)=C3C#N)c2c1 (stereo not given) yielded a zone of inhibition at 500 µg/mL of 6 mm.

Tested on: Aspergillus oryzae
Test: Antimicrobial activity against Aspergillus oryzae MTCC 3567 at 1000 ug/ml after 72 hrs by cup plate method
Assay type: functional
Settings: MTCC 3567, 72 h, read-out: IZ
Cc1ccc2[nH]c(-c3ccccc3)c(C3C=C(c4ccc(Cl)cc4)OC(N)=C3C#N)c2c1 (stereo not given) showed a zone of inhibition at 1000 µg/mL of 10 mm.

From ChEMBL document CHEMBL2346657, “Synthesis of novel 2-amino-4-(5'-substituted 2'-phenyl-1H-indol-3'-yl)-6-aryl-4H-pyran-3-carbonitrile derivatives as antimicrobial and antioxidant agents” (2013)
